Data from patent publication US20090118274A1, “MONOCYCLIC AMINOPROPYL TETRAHYDRO-PYRAZOLO-PYRIDINE MODULATORS OF CATHEPSIN S” (priority 2007, published 2009).

Molecular target: T1, Recombinant human cathepsin S (CatS) (Homo sapiens, UniProt P25774)
T1 construct: made in house
Test: Recombinant human cathepsin S (CatS) fluorogenic substrate inhibition assay
Type: biochemical
Details: not given
Protocol: Recombinant human cathepsin S (CatS) was expressed in the baculovirus system and purified in one step with a thiopropyl-sepharose column. […] The assay is run in 150 mM sodium acetate pH 5.0 containing 1.5 mM DTT and 150 mM NaCl. […] Measurements are taken every min for 20 min. The rate is calculated from the slope of the increase in fluorescence and the percent inhibition is calculated from this.

T1 sequence (P25774 115-331): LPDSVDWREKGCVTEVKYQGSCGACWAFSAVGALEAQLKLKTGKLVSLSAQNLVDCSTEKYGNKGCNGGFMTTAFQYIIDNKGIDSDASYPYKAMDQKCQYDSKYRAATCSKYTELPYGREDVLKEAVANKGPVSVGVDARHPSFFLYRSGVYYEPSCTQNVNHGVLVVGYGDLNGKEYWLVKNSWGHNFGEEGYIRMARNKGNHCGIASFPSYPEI

IC50 [nM] | Compound
80 | CC(=O)NCC1CCN(CC(O)Cn2nc(-c3ccc(C(F)(F)F)c(CNC(=O)C=C(C)C)c3)c3c2CCN(S(C)(=O)=O)C3)CC1 (stereo not drawn) [Example 267, 3-Methyl-but-2-enoic acid 5-(1-{3-[4-(acetylamino-methyl)-piperidin-1-yl]-2-hydroxy-propyl}-5-methanesulfonyl-4,5,6,7-tetrahydro-1H-pyrazolo[4,3-c]pyridin-3-yl)-2-trifluoromethyl-benzylamide]
770 | CS(=O)(=O)N1CCc2c(c(-c3ccc(C(F)(F)F)c(CNC(=O)c4cccc(C(=O)O)c4)c3)nn2CC(O)CN2CCCC2)C1 (stereo not drawn) [Example 191, N-{5-[1-(2-Hydroxy-3-pyrrolidin-1-yl-propyl)-5-methanesulfonyl-4,5,6,7-tetrahydro-1H-pyrazolo[4,3-c]pyridin-3-yl]-2-trifluoromethyl-benzyl]-isophthalamic acid]

Compound | IC50 [nM]
CS(=O)(=O)N1CCc2c(c(-c3ccc(C(F)(F)F)c(CNC(=O)Oc4ccccc4)c3)nn2CCCN2CCC3(CCNC3=O)CC2)C1 [Example 148, (5-{5-Methanesulfonyl-1-[3-(1-oxo-2,8-diaza-spiro[4.5]dec-8-yl)-propyl]-4,5,6,7-tetrahydro-1H-pyrazolo[4,3-c]pyridin-3-yl}-2-trifluoromethyl-benzyl)-carbamic acid phenyl ester] | 200

Same assay, conditions: average of results obtained; substrate Z-Valine-Valine-Arginine-AMC 10 μM, pH 5.0; read-out: CatS IC50

Compound | IC50 [nM]
CS(=O)(=O)N1CCc2c(c(-c3ccc(C(F)(F)F)c(CNS(=O)(=O)c4ccccc4)c3)nn2CC(O)CN2CCCC2)C1 (stereo not drawn) [Example 66, N-{5-[1-(2-Hydroxy-3-pyrrolidin-1-yl-propyl)-5-methanesulfonyl-4,5,6,7-tetrahydro-1H-pyrazolo[4,3-c]pyridin-3-yl]-2-trifluoromethyl-benzyl}-benzenesulfonamide] | 2900
CC(C)=CC(=O)NCc1cc(-c2nn(CC(O)CN3CCCC(CN(C)C)C3)c3c2CN(S(C)(=O)=O)CC3)ccc1C(F)(F)F (stereo not drawn) [Example 271, 3-Methyl-but-2-enoic acid 5-{1-[3-(3-dimethylaminomethyl-piperidin-1-yl)-2-hydroxy-propyl]-5-methanesulfonyl-4,5,6,7-tetrahydro-1H-pyrazolo[4,3-c]pyridin-3-yl}-2-trifluoromethyl-benzylamide] | 580
CS(=O)(=O)N1CCc2c(c(-c3ccc(Cl)c(CNC(=O)c4ccccc4)c3)nn2CC(O)CN2CCCCC2)C1 (stereo not drawn) [Example 231, N-{2-Chloro-5-[1-(2-hydroxy-3-piperidin-1-yl-propyl)-5-methanesulfonyl-4,5,6,7-tetrahydro-1H-pyrazolo[4,3-c]pyridin-3-yl]-benzyl}-benzamide] | 800
CS(=O)(=O)N1CCc2c(c(-c3ccc(Cl)c(COC(=O)c4ccc(F)cc4)c3)nn2CCCN2CCCC2)C1 [Example 3, 4-Fluoro-benzoic acid 2-chloro-5-[5-methanesulfonyl-1-(3-pyrrolidin-1-yl-propyl)-4,5,6,7-tetrahydro-1H-pyrazolo[4,3-c]pyridin-3-yl]-benzyl ester] | 1320
CS(=O)(=O)N1CCc2c(c(-c3ccc(C(F)(F)F)c(CNC(=O)c4ccc(C(F)(F)F)cc4)c3)nn2CC(O)CN2CCCC2)C1 (stereo not drawn) [Example 225, N-{5-[1-(2-Hydroxy-3-pyrrolidin-1-yl-propyl)-5-methanesulfonyl-4,5,6,7-tetrahydro-1H-pyrazolo[4,3-c]pyridin-3-yl]-2-trifluoromethyl-benzyl]-4-trifluoromethyl-benzamide] | 750
CS(=O)(=O)N1CCc2c(c(-c3ccc(Cl)c(CCC(=O)Nc4ccc(F)cc4)c3)nn2CCCN2CCOCC2)C1 [Example 293, 3-{2-Chloro-5-[5-methanesulfonyl-1-(3-morpholin-4-yl-propyl)-4,5,6,7-tetrahydro-1H-pyrazolo[4,3-c]pyridin-3-yl]-phenyl}-N-(4-fluoro-phenyl)-propionamide] | 3000
CS(=O)(=O)N1CCc2c(c(-c3ccc(C(F)(F)F)c(CNS(=O)(=O)c4ccc(F)cc4)c3)nn2CC(O)CN2CCCC2)C1 (stereo not drawn) [Example 194, 4-Fluoro-N-{5-[1-(2-hydroxy-3-pyrrolidin-1-yl-propyl)-5-methanesulfonyl-4,5,6,7-tetrahydro-1H-pyrazolo[4,3-c]pyridin-3-yl]-2-trifluoromethyl-benzyl}-benzenesulfonamide] | 4900
CS(=O)(=O)NCc1cc(-c2nn(CC(O)CN3CCCC3)c3c2CN(S(C)(=O)=O)CC3)ccc1C(F)(F)F (stereo not drawn) [Example 195, N-{5-[1-(2-Hydroxy-3-pyrrolidin-1-yl-propyl)-5-methanesulfonyl-4,5,6,7-tetrahydro-1H-pyrazolo[4,3-c]pyridin-3-yl]-2-trifluoromethyl-benzyl}-methanesulfonamide] | 6500
Cc1ccc(C(=O)NCc2cc(-c3nn(CCCN4CCCC4)c4c3CN(S(C)(=O)=O)CC4)ccc2Cl)cc1 [Example 88, N-{2-Chloro-5-[5-methanesulfonyl-1-(3-pyrrolidin-1-yl-propyl)-4,5,6,7-tetrahydro-1H-pyrazolo[4,3-c]pyridin-3-yl]-benzyl}-4-methyl-benzamide] | 740
CS(=O)(=O)N1CCc2c(c(-c3ccc(Cl)c(COCc4ccccc4)c3)nn2CCCN2CCCC2)C1 [Example 71, 3-(3-Benzyloxymethyl-4-chloro-phenyl)-5-methanesulfonyl-1-(3-pyrrolidin-1-yl-propyl)-4,5,6,7-tetrahydro-1H-pyrazolo[4,3-c]pyridine] | 1950

More lines, now with the values ahead:

IC50 [nM] | Compound
360 | CN(C)C1CCN(CC(O)Cn2nc(-c3ccc(C(F)(F)F)c(CNC(=O)c4ccc(F)cc4)c3)c3c2CCN(S(C)(=O)=O)C3)C1 (stereo not drawn) [Example 26, N-(5-{1-[3-(3-Dimethylamino-pyrrolidin-1-yl)-2-hydroxy-propyl]-5-methanesulfonyl-4,5,6,7-tetrahydro-1H-pyrazolo[4,3-c]pyridin-3-yl}-2-trifluoromethyl-benzyl)-4-fluoro-benzamide]
300 | CS(=O)(=O)N1CCc2c(c(-c3ccc(Cl)c(CNC(=O)c4ccc(F)cc4)c3)nn2CC(O)CN2CCCC(O)C2)C1 (stereo not drawn) [Example 74, N-(2-Chloro-5-{1-[2-hydroxy-3-(3-hydroxy-piperidin-1-yl)-propyl]-5-methanesulfonyl-4,5,6,7-tetrahydro-1H-pyrazolo[4,3-c]pyridin-3-yl}-benzyl)-4-fluoro-benzamide]
560 | CS(=O)(=O)N1CCc2c(c(-c3ccc(Cl)c(CNC(=O)c4ccccc4)c3)nn2CC(O)CN2CCCCCC2)C1 (stereo not drawn) [Example 170, N-{5-[1-(3-Azepan-1-yl-2-hydroxy-propyl)-5-methanesulfonyl-4,5,6,7-tetrahydro-1H-pyrazolo[4,3-c]pyridin-3-yl]-2-chloro-benzyl}-benzamide]
300 | CC(=O)N1CCN(CC(O)Cn2nc(-c3ccc(C(F)(F)F)c(CNC(=O)c4ccc(F)cc4)c3)c3c2CCN(S(C)(=O)=O)C3)CC1 (stereo not drawn) [Example 21, N-(5-{1-[3-(4-Acetyl-piperazin-1-yl)-2-hydroxy-propyl]-5-methanesulfonyl-4,5,6,7-tetrahydro-1H-pyrazolo[4,3-c]pyridin-3-yl}-2-trifluoromethyl-benzyl)-4-fluoro-benzamide]
500 | CC(=O)Nc1cccc(C(=O)NCc2cc(-c3nn(CC(O)CN4CCCC4)c4c3CN(S(C)(=O)=O)CC4)ccc2C(F)(F)F)c1 (stereo not drawn) [Example 59, 3-Acetylamino-N-{5-[1-(2-hydroxy-3-pyrrolidin-1-yl-propyl)-5-methanesulfonyl-4,5,6,7-tetrahydro-1H-pyrazolo[4,3-c]pyridin-3-yl]-2-trifluoromethyl-benzyl}-benzamide]
110 | CS(=O)(=O)N1CCc2c(c(-c3ccc(C(F)(F)F)c(CNC(=O)c4ccccc4)c3)nn2CCCN2CCC3(CCNC3=O)CC2)C1 [Example 144, N-(5-{5-Methanesulfonyl-1-[3-(1-oxo-2,8-diaza-spiro[4.5]dec-8-yl)-propyl]-4,5,6,7-tetrahydro-1H-pyrazolo[4,3-c]pyridin-3-yl}-2-trifluoromethyl-benzyl)-benzamide]
170 | CS(=O)(=O)N1CCc2c(c(-c3ccc(Cl)c(CNC(=O)c4ccc(F)cc4)c3)nn2CC(O)CN2CCCC(C(N)=O)C2)C1 (stereo not drawn) [Example 81, 1-[3-(3-{4-Chloro-3-[(4-fluoro-benzoylamino)-methyl]-phenyl}-5-methanesulfonyl-4,5,6,7-tetrahydro-pyrazolo[4,3-c]pyridin-1-yl)-2-hydroxy-propyl]-piperidine-3-carboxylic acid amide]
160 | CS(=O)(=O)N1CCc2c(c(-c3ccc(C(F)(F)F)c(CNC(=O)c4ccc(F)cc4)c3)nn2CC(O)CN2CCC(CCO)CC2)C1 (stereo not drawn) [Example 91, 4-Fluoro-N-[5-(1-{2-hydroxy-3-[4-(2-hydroxy-ethyl)-piperidin-1-yl]-propyl}-5-methanesulfonyl-4,5,6,7-tetrahydro-1H-pyrazolo[4,3-c]pyridin-3-yl)-2-trifluoromethyl-benzyl]-benzamide]
60 | CS(=O)(=O)N1CCc2c(c(-c3ccc(C(F)(F)F)c(CNC(=O)c4ccc(F)cc4)c3)nn2CC(O)CN2CCC3(CCNC3=O)CC2)C1 (stereo not drawn) [Example 16, 4-Fluoro-N-(5-{1-[2-hydroxy-3-(1-oxo-2,8-diaza-spiro[4.5]dec-8-yl)-propyl]-5-methanesulfonyl-4,5,6,7-tetrahydro-1H-pyrazolo[4,3-c]pyridin-3-yl}-2-trifluoromethyl-benzyl)-benzamide]
50 | CCOC(=O)NC1CCN(CC(O)Cn2nc(-c3ccc(C(F)(F)F)c(CNC(=O)CC(C)C)c3)c3c2CCN(S(C)(=O)=O)C3)CC1 (stereo not drawn) [Example 155, {1-[2-Hydroxy-3-(5-methanesulfonyl-3-{3-[(3-methyl-butyrylamino)-methyl]-4-trifluoromethyl-phenyl}-4,5,6,7-tetrahydro-pyrazolo[4,3-c]pyridin-1-yl)-propyl]-piperidin-4-yl}-carbamic acid ethyl ester]
280 | CS(=O)(=O)N1CCc2c(c(-c3ccc(Cl)c(CNC(=O)c4ccc(F)cc4)c3)nn2CCCN2CCCC2)C1 [Example 35, N-{2-Chloro-5-[5-methanesulfonyl-1-(3-pyrrolidin-1-yl-propyl)-4,5,6,7-tetrahydro-1H-pyrazolo[4,3-c]pyridin-3-yl]-benzyl}-4-fluoro-benzamide]
